# Values joined by “and” are separate entries in the source; they are usually repeats but may differ in a detail not shown here. Equal values may be shown once.
# Tests used:
# Type in all cases: cell-based, human
# [1] = test system: PBMC cultures from HIV-1 infected subjects on cART; assay: Induced HIV-1 expression in PBMC cultures, HIV-1 RNA in supernatant after 4 days (COBAS TaqMan HIV-1 Test); conditions: for Geometric Mean with ≥2-Fold-Activation / Range with ≥2-Fold-Activation: N = 12; for N with ≥2-Fold-Activation: subjects; for Fold HIV-1 Activation: vs DMSO
# Procedure: In some experiments, IL-15, the TLR8 modulating compound of Example 15 or the combination of IL-15 and Example 15 were used at the indicated concentrations (Table 4). The cultures were maintained in the presence of antivirals (elvitegravir and efavirenz at 100 nM each) to prevent viral spread and amplification in order to measure the quantity of virus produced (latency reversal) by the TLR8 modulating compounds. At the end of the incubation period, cell-free culture supernatants were harvested and HIV-1 RNA levels were quantified by the COBAS® AmpliPrep/COBAS®TaqMan HIV-1 Test, v2.0 (Roche).
# In each table, fold-activation is calculated as a ratio of HIV-1 RNA copies per ml of cell culture supernatants from TLR8 agonist treated samples and DMSO treated controls. Geometric mean fold-activation from three independent incubation samples for each condition of each subject's PBMCs. Values in bold indicate ≥2-fold HIV activation.
# To assess if the latency reversal induced by TLR8 agonism could further potentiate latency reversal by a separate mechanisms, we treated cells as described above with IL-15, Example 15, or a combination of IL-15 and Example 15 (Table 4).
# CD4+ T Cells = assay: Immune cell activation in PBMC cultures, flow cytometry: CD4+ T cells; conditions: 2 days, N = 6
# Procedure: (§1) TLR8 is expressed on multiple immune cell subsets. To determine how treatment with a TLR8 modulating compound affects activation of distinct cell populations, PBMCs were purified from HIV-1 infected subjects on cART, as described in Example 121 (anonymized participant IDs 184, 185, 188, 189, 190, and 191). […] After incubation, PBMCs were harvested and stained with antibodies conjugated to specific fluorophores (BD Biosciences) to delineate immune cell subsets: CD4 T cells (CD3+CD4+CD8−), CD8 T cells (CD3+CD8+CD4−), NK cells (CD3−CD56+CD16+), monocytes (CD3−CD14+), B cells (CD3−CD19+), and peripheral dendritic cells (DCs), defined as positive for HLA-DR and negative for a panel of markers: CD3, CD14, CD16, CD19, CD20, CD56 (Lin-1 lineage panel, BD Biosciences).
# (§2) Additional markers of activation, maturation, and effector function were included for cell subsets, as follows: CD4 and CD8 T cells (CD25, CD38, CD69, IFN-γ, granzyme B, perforin, TNF-α), NK cells (CD25, CD69, IFN-γ), monocytes (CD11c, CD16, CD80, CD86, CD163, TNF-α), B cells (CD40, CD69, CD80, CD86), and DC (CD11c, CD69, CD80, CD86, CD123, and CD163). Cells were stained for surface markers (CD3, CD4, CD8, CD11c, CD14, CD16, CD25, CD69, CD80, CD86, CD163), washed, treated with fixation and permeabilization buffer (eBioscience), and stained for intracellular markers (IFN-γ, granzyme B, perforin, TNF-α). Cells were evaluated by flow cytometry on a LSR Fortessa (BD Biosciences), and data was analyzed with FlowJo software (TreeStar).
# (§3) Data are expressed as geometric mean percentage (%) and as geometric mean fold-activation (Fold) for each marker and for each PBMC subset obtained from 4 or 6 subjects, as indicated. Fold activation is calculated as a ratio of the % positive for each marker for each PBMC subset at the indicated concentration of the compound of Example 15 relative to % positive for DMSO treated samples. Fold activations that are 1.5 are in bold.
# B Cells = assay: Immune cell activation in PBMC cultures, flow cytometry: B cells; conditions: for B Cells CD69 Fold / B Cells CD80 Fold / B Cells CD69 % / B Cells CD80 %: 2 days, N = 4
# Procedure: as §1, §2, §3
# Monocytes = assay: Immune cell activation in PBMC cultures, flow cytometry: monocytes
# Procedure: as §1, §2, §3
# [2] = test system: HIV-specific polyfunctional CD8 T cells; assay: Induced HIV-specific polyfunctional CD8+ T cells in PBMC cultures from HIV-1 infected subjects on cART
structure (smiles),measurement,setting,value
CCCC[C@H](CO)Nc1nc(N)nc2cccnc12 [Example 15],Subjects with ≥2-Fold-Activation (%),[1]; 10 nM,(42) %
same,Geometric Mean with ≥2-Fold-Activation,[1]; 10 nM,4.6 fold
same,Range with ≥2-Fold-Activation,[1]; 10 nM,2.2-20.1 fold
same,N with ≥2-Fold-Activation,[1]; 10 nM,5 of 12
same,Fold HIV-1 Activation,"[1]; 10 nM, one value per subject (IDs 172-183)",2.6 fold and 2.2 fold and 4.7 fold and 1.2 fold and 1.9 fold and 1.3 fold and 0.3 fold and 0.5 fold and 1.0 fold and 4.1 fold and 0.8 fold
same,Subjects with ≥2-Fold-Activation (%),[1]; 100 nM,(33) %
same,Geometric Mean with ≥2-Fold-Activation,[1]; 100 nM,4.8 fold
same,Range with ≥2-Fold-Activation,[1]; 100 nM,2.2-10.1 fold
same,N with ≥2-Fold-Activation,[1]; 100 nM,4 of 12
same,Fold HIV-1 Activation,"[1]; 100 nM, one value per subject (IDs 172-183)",3.8 fold and 6.6 fold and 2.2 fold and 1.5 fold and 1.0 fold and 0.5 fold and 0.2 fold and 0.1 fold and 0.7 fold and 1.8 fold and 1.3 fold
same,Subjects with ≥2-Fold-Activation (%),"[1]; 1,000 nM",(58) %
same,Geometric Mean with ≥2-Fold-Activation,"[1]; 1,000 nM",3.4 fold
same,Range with ≥2-Fold-Activation,"[1]; 1,000 nM",2.4-5.7 fold
same,N with ≥2-Fold-Activation,"[1]; 1,000 nM",7 of 12
same,Fold HIV-1 Activation,"[1]; 1,000 nM, one value per subject (IDs 172-183)",2.7 fold and 2.4 fold and 3.3 fold and 1.2 fold and 4.7 fold and 0.3 fold (2×) and 3.4 fold and 3.0 fold and 1.3 fold and 1.6 fold and 5.7 fold
same,Geometric Mean with ≥2-Fold-Activation,"[1]; 10, 100, or 1000 nM",4.4 fold
same,Range with ≥2-Fold-Activation,"[1]; 10, 100, or 1000 nM",2.2-20.1 fold
same,N with ≥2-Fold-Activation,"[1]; 10, 100, or 1000 nM",9 out of 12 and 9 of 12
same,Subjects with ≥2-Fold-Activation (%),[1]; Example 15 1000 nM,50%
same,"Fold HIV-1 Activation, Geometric Mean","[1]; Example 15 1000 nM, N = 6",2.1 fold
same,N with ≥2-Fold-Activation,[1]; Example 15 1000 nM,3 of 6
same,Fold HIV-1 Activation,"[1]; Example 15 1000 nM, one value per subject (IDs 205-210)",0.6 fold and 4.7 fold and 0.8 fold and 9.7 fold and 2.0 fold and 1.9 fold
same,CD4+ T Cells CD25 Fold,CD4+ T Cells; 10 nM vs DMSO,0.6 fold
same,CD4+ T Cells CD69 Fold,CD4+ T Cells; 10 nM vs DMSO,0.7 fold
same,CD4+ T Cells Perforin Fold,CD4+ T Cells; 10 nM vs DMSO,1.5 fold
same,CD4+ T Cells CD25 %,CD4+ T Cells; 10 nM,1.5%
same,CD4+ T Cells CD69 %,CD4+ T Cells; 10 nM,5.7%
same,CD4+ T Cells CD25 Fold,CD4+ T Cells; 100 nM vs DMSO,1.7 fold
same,CD4+ T Cells CD69 Fold,CD4+ T Cells; 100 nM vs DMSO,1.0 fold
same,CD4+ T Cells Perforin Fold,CD4+ T Cells; 100 nM vs DMSO,1.3 fold
same,CD4+ T Cells CD25 %,CD4+ T Cells; 100 nM,3.9%
same,CD4+ T Cells CD69 %,CD4+ T Cells; 100 nM,7.7%
same,CD4+ T Cells CD25 Fold,CD4+ T Cells; 1000 nM vs DMSO,1.8 fold
same,CD4+ T Cells CD69 Fold,CD4+ T Cells; 1000 nM vs DMSO,1.5 fold
same,CD4+ T Cells Perforin Fold,CD4+ T Cells; 1000 nM vs DMSO,1.8 fold
same,CD4+ T Cells CD25 %,CD4+ T Cells; 1000 nM,4.2%
same,CD4+ T Cells CD25 Fold,CD4+ T Cells; 3000 nM vs DMSO,1.3 fold
same,CD4+ T Cells CD69 Fold,CD4+ T Cells; 3000 nM vs DMSO,1.7 fold
same,CD4+ T Cells Perforin Fold,CD4+ T Cells; 3000 nM vs DMSO,2.1 fold
same,CD4+ T Cells CD25 %,CD4+ T Cells; 3000 nM,3.0%
same,CD4+ T Cells Perforin %,CD4+ T Cells; 3000 nM,17.0%
same,B Cells CD69 Fold,B Cells; 10 nM vs DMSO,1.2 fold
same,B Cells CD80 Fold,B Cells; 10 nM vs DMSO,1.6 fold
same,B Cells CD69 %,B Cells; 10 nM,10.0%
same,B Cells CD80 %,B Cells; 10 nM,2.6%
same,B Cells CD69 Fold,B Cells; 100 nM vs DMSO,0.5 fold
same,B Cells CD80 Fold,B Cells; 100 nM vs DMSO,1.1 fold
same,B Cells CD69 %,B Cells; 100 nM,3.9%
same,B Cells CD80 %,B Cells; 100 nM,1.7%
same,B Cells CD69 Fold,B Cells; 1000 nM vs DMSO,1.1 fold
same,B Cells CD80 Fold,B Cells; 1000 nM vs DMSO,1.4 fold
same,B Cells CD69 %,B Cells; 1000 nM,9.1%
same,B Cells CD80 %,B Cells; 1000 nM,2.2%
same,B Cells CD69 Fold,B Cells; 3000 nM vs DMSO,1.7 fold
same,B Cells CD80 Fold,B Cells; 3000 nM vs DMSO,1.9 fold
same,B Cells CD80 %,B Cells; 3000 nM,3.0%
same,Concentration of maximal activation of B cells,B Cells; increased expression of CD69 and CD80,3000 nM
same,Monocytes CD11c Fold,"Monocytes; 10 nM vs DMSO, 2 days, N = 6",0.6 fold
same,Monocytes CD69 Fold,"Monocytes; 10 nM vs DMSO, 2 days, N = 6",0.3 fold
same,Monocytes CD80 Fold,"Monocytes; 10 nM vs DMSO, 2 days, N = 6",1.1 fold
same,Monocytes CD11c %,"Monocytes; 10 nM, 2 days, N = 6",0.4%
same,Monocytes CD69 %,"Monocytes; 10 nM, 2 days, N = 6",0.8%
same,Monocytes CD80 %,"Monocytes; 10 nM, 2 days, N = 6",33.0%
same,Monocytes CD11c Fold,"Monocytes; 100 nM vs DMSO, 2 days, N = 6",5.2 fold
same,Monocytes CD69 Fold,"Monocytes; 100 nM vs DMSO, 2 days, N = 6",0.6 fold
same,Monocytes CD80 Fold,"Monocytes; 100 nM vs DMSO, 2 days, N = 6",1.6 fold
same,Monocytes CD11c %,"Monocytes; 100 nM, 2 days, N = 6",3.6%
same,Monocytes CD69 %,"Monocytes; 100 nM, 2 days, N = 6",1.8%
same,Monocytes CD11c Fold,"Monocytes; 1000 nM vs DMSO, 2 days, N = 6",1.6 fold
same,Monocytes CD69 Fold,"Monocytes; 1000 nM vs DMSO, 2 days, N = 6",2.0 fold
same,Monocytes CD80 Fold,"Monocytes; 1000 nM vs DMSO, 2 days, N = 6",3.0 fold
same,Monocytes CD11c %,"Monocytes; 1000 nM, 2 days, N = 6",1.2%
same,Monocytes CD69 %,"Monocytes; 1000 nM, 2 days, N = 6",6.2%
same,Monocytes CD11c Fold,"Monocytes; 3000 nM vs DMSO, 2 days, N = 6",2.1 fold
same,Monocytes CD69 Fold,"Monocytes; 3000 nM vs DMSO, 2 days, N = 6",2.6 fold
same,Monocytes CD80 Fold,"Monocytes; 3000 nM vs DMSO, 2 days, N = 6",2.7 fold
same,Monocytes CD11c %,"Monocytes; 3000 nM, 2 days, N = 6",1.5%
same,Monocytes CD69 %,"Monocytes; 3000 nM, 2 days, N = 6",7.9%
same,Concentration of maximal activation of monocytes,Monocytes; increased expression of CD11c,100 nM
same,Concentration of maximal activation of monocytes,Monocytes; increased expression of CD69,3000 nM
same,Concentration of maximal activation of monocytes,Monocytes; increased expression of CD80,1000 nM
same,Patients in whom increases in HIV-specific polyfunctional CD8 T cells were seen,[2]; 100 nM,3 of 5
same,Median HIV-specific polyfunctional CD8 T cells (% proliferating CD8+ cells double positive for IFN-γ and TNF-α),"[2]; 100 nM, HIV peptide pool, 5 subjects",0.99%
same,Patients in whom increases in HIV-specific polyfunctional CD8 T cells were seen,[2]; 1000 nM,4 of 5
same,Fold increase of median HIV-specific polyfunctional CD8 T cells,"[2]; 1000 nM with HIV specific peptide pool vs vehicle, p<0.05",2.7 fold
